± gives the standard deviation of the averaged measurements.
Columns and labels:
[1] = compound: CC[C@@H]1C(=O)N(C)c2cnc(Nc3ccc(C(=O)NC4CCN(C)CC4)cc3OC)nc2N1C1CCCC1 [BI-2536]; assay: surviving fraction relative to DMSO-only wells; higher = less growth inhibition; conditions: exposure time: 5 days
Method in brief: (§1)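 Viability values are CellTiter-Glo luminescence readings, given as surviving fraction against the median of DMSO-only wells. The readings were taken after 10 minutes at room temperature, following five days of continuous exposure to inhibitors at 0.5, 1, 5, 10, 50, 100, 500 and 1000 nM that began 24 hours after log-phase tumour cell lines were seeded at 250–500 cells per well in 384-well plates. Every line was screened three times and kept only if replicate Pearson r >0.7 and median Z' >0.3.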

[2] = compound: CCCCCCCCCCCCCCCC(=O)Nc1ccn([C@@H]2O[C@H](CO)[C@@H](O)[C@@H]2C#N)c(=O)n1 [SAPACITABINE]; assay: as above; conditions: exposure time: 5 days
Method in brief: as §1

Row | Test System | surviving fraction ([1]; 0.5 nM) | surviving fraction ([1]; 1 nM) | surviving fraction ([1]; 5 nM) | surviving fraction ([1]; 10 nM) | surviving fraction ([1]; 50 nM) | surviving fraction ([1]; 100 nM) | surviving fraction ([1]; 500 nM) | surviving fraction ([1]; 1000 nM) | surviving fraction ([2]; 0.5 nM) | surviving fraction ([2]; 1 nM) | surviving fraction ([2]; 5 nM) | surviving fraction ([2]; 10 nM) | surviving fraction ([2]; 50 nM) | surviving fraction ([2]; 100 nM) | surviving fraction ([2]; 500 nM) | surviving fraction ([2]; 1000 nM)
1 | SYO1 SYNOVIAL | 1.02 ± 0.015 | 0.884 ± 0.045 | 0.108 ± 0.036 | 0.0738 ± 0.015 | 0.0606 ± 0.0062 | 0.0441 ± 0.0071 | 0.0205 ± 0.0005 | 0.0188 ± 0.0014 | 0.83 ± 0.07 | 0.689 ± 0.019 | 0.737 ± 0.016 | 0.343 ± 0.029 | 0.48 ± 0.022 | 0.269 ± 0.0028 | 0.0989 ± 0.0067 | 0.0679 ± 0.0022
2 | JIMT1 BREAST | 0.941 ± 0.041 | 0.737 ± 0.015 | 0.2183 ± 0.0013 | 0.181 ± 0.0095 | 0.18 ± 0.017 | 0.158 ± 0.02 | 0.143 ± 0.0061 | 0.0883 ± 0.0045 | 0.862 ± 0.018 | 0.8617 ± 0.0045 | 0.899 ± 0.032 | 0.87 ± 0.025 | 0.966 ± 0.046 | 0.859 ± 0.04 | 0.632 ± 0.015 | 0.558 ± 0.032
3 | HS57T BREAST | 1.1 ± 0.045 | 0.986 ± 0.028 | 0.216 ± 0.016 | 0.114 ± 0.011 | 0.0903 ± 0.0047 | 0.0937 ± 0.0085 | 0.156 ± 0.025 | 0.127 ± 0.009 | 0.892 ± 0.016 | 0.885 ± 0.028 | 0.904 ± 0.051 | 0.853 ± 0.027 | 0.75 ± 0.024 | 0.612 ± 0.045 | 0.325 ± 0.037 | 0.246 ± 0.011
4 | HCC1806 BREAST | 0.932 ± 0.046 | 0.749 ± 0.07 | 0.05 ± 0.0082 | 0.0447 ± 0.026 | 0.126 ± 0.025 | 0.136 ± 0.0081 | 0.106 ± 0.0027 | 0.0743 ± 0.015 | 0.698 ± 0.06 | 0.673 ± 0.062 | 0.652 ± 0.048 | 0.462 ± 0.067 | 0.259 ± 0.028 | 0.167 ± 0.0089 | 0.0637 ± 0.0081 | 0.061 ± 0.007
5 | HOS BONE | 1.02 ± 0.015 | 0.979 ± 0.008 | 0.203 ± 0.044 | 0.031 ± 0.0027 | 0.0337 ± 0.0029 | 0.023 ± 0.001 | 0.018 ± 0.001 | 0.0207 ± 0.00058 | 0.899 ± 0.01 | 0.912 ± 0.0076 | 0.927 ± 0.018 | 0.911 ± 0.024 | 0.975 ± 0.041 | 0.831 ± 0.026 | 0.209 ± 0.035 | 0.224 ± 0.007
6 | HCC1395 BREAST | 1.04 ± 0.12 | 0.9 ± 0.043 | 0.709 ± 0.18 | 0.623 ± 0.15 | 0.729 ± 0.071 | 0.661 ± 0.05 | 1.11 ± 0.19 | 0.78 ± 0.029 | 0.861 ± 0.028 | 0.828 ± 0.045 | 0.949 ± 0.035 | 0.877 ± 0.04 | 0.935 ± 0.14 | 0.889 ± 0.028 | 0.808 ± 0.16 | 0.715 ± 0.15
7 | NOS1 BONE | 1.01 ± 0.12 | 0.839 ± 0.089 | 0.338 ± 0.056 | 0.296 ± 0.046 | 0.341 ± 0.074 | 0.387 ± 0.002 | 0.334 ± 0.034 | 0.328 ± 0.02 | 0.853 ± 0.16 | 0.774 ± 0.081 | 0.938 ± 0.16 | 0.863 ± 0.062 | 0.968 ± 0.12 | 0.973 ± 0.13 | 0.811 ± 0.059 | 0.764 ± 0.14
8 | MDAMB134 BREAST | 0.944 ± 0.11 | 0.699 ± 0.069 | 0.792 ± 0.03 | 0.835 ± 0.034 | 1.2 ± 0.058 | 1.101 ± 0.0092 | 0.788 ± 0.0092 | 0.644 ± 0.048 | 0.689 ± 0.09 | 0.627 ± 0.083 | 0.65 ± 0.046 | 0.7515 ± 0.0035 | 0.785 ± 0.036 | 0.821 ± 0.11 | 0.817 ± 0.058 | 0.916 ± 0.054
9 | MDAMB453 BREAST | 0.994 ± 0.018 | 0.763 ± 0.052 | 0.178 ± 0.019 | 0.156 ± 0.025 | 0.173 ± 0.017 | 0.171 ± 0.0075 | 0.108 ± 0.031 | 0.0703 ± 0.042 | 0.988 ± 0.053 | 0.968 ± 0.053 | 1 ± 0.058 | 1.03 ± 0.07 | 1.01 ± 0.022 | 1.01 ± 0.067 | 0.641 ± 0.033 | 0.407 ± 0.03
10 | ASKA SYNOVIAL | 0.962 ± 0.057 | 0.919 ± 0.066 | 0.228 ± 0.012 | 0.231 ± 0.0032 | 0.256 ± 0.012 | 0.219 ± 0.012 | 0.185 ± 0.0081 | 0.238 ± 0.011 | 0.917 ± 0.028 | 0.783 ± 0.0061 | 0.865 ± 0.024 | 0.327 ± 0.053 | 0.911 ± 0.043 | 0.688 ± 0.044 | 0.489 ± 0.01 | 0.203 ± 0.014
